Where two headings read alike, the source gives them in different places.
How the values were obtained:
[1] = tested on: Trypanosoma brucei Lister 427 strain, bloodstream form; test: Assay for proliferation of kinetoplastid parasite Trypanosoma brucei (Cell Titer Glo, 48 hours); type: cell-based; settings: Trypanosoma brucei, T. brucei Lister 427 bloodstream form, read-out: T. brucei EC50
Procedure, shortened: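 Bloodstream-form T. brucei Lister 427 in HMI-9 medium was exposed to compound (DMSO vehicle) for 48 hours at 37° C, 5% CO2. Parasite growth was read as ATP by CellTiter-Glo luminescence, with EC50 calculated from percent inhibition.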

[2] = tested on: Leishmania donovani axenic amastigote parasites; test: Leishmania donovani axenic amastigote proliferation assay (Cell TiterGlo luminescence, 2 day incubation); type: cell-based; settings: Leishmania donovani, read-out: L. donovani amastigotes EC50
[3] = tested on: L. donovani HU3 strain in mouse peritoneal macrophages; test: Assay for proliferation of Leishmania parasites in infected mouse peritoneal macrophages (SybrGreen staining, high-content imaging, 5 days); type: cell-based, Leishmania donovani; settings: Leishmania donovani, Peritoneal macrophage, L. donovani in mouse peritoneal macrophages, read-out: L. donovani Macrophage EC50
[4] = tested on: Trypanosoma cruzi amastigotes (Tulahuen strain expressing Lac-Z) cultured in 3T3 fibroblast cells; test: microbe, parasite or virus in culture; type: cell-based; settings: Trypanosoma cruzi, TULAHUEN, Fibroblast, T. cruzi amastigotes in 3T3 fibroblast cells, read-out: T cruzi EC50
[5] = axenic amastigotes, inhibition of proliferation

Structure (SMILES) | EC50 ([1]; inhibition of proliferation) [nM] | EC50 [2, 5] [nM] | EC50 ([3]; inhibition of proliferation) [nM] | EC50 ([4]; inhibition of proliferation) [nM] | EC50 [1] [nM] | EC50 ([2]; L. donovani axenic amastigotes) [nM] | EC50 [3] [nM] | EC50 [4] [nM]
O=C(Nc1ccc(F)c(-c2cn3cc(F)cnc3n2)c1)N1CCC1 [Compound 232] | 203 | 381 | 1650 | 384 | – | – | – | –
CC(C)OC(=O)Nc1cnc2nc(-c3cc(NC(=O)c4cccs4)ccc3F)cn2c1 [Compound 75] | 482 | 581 | > 6020 | 150 | – | – | – | –
O=C(Nc1ccc(Cl)c(-c2cn3cc(-c4ccc(OC5CCNCC5)cc4)cnc3n2)c1)N1CCCC1 [Compound 574] | – | – | – | – | 460 | 744 | 886 | 436
O=C(Nc1cnc2nc(-c3cc(NC(=O)N4CCCC4)ccc3F)cn2c1)[C@@H]1CNCCO1 [Compound 130] | 4660 | 13900 | 26600 | 7120 | – | – | – | –
Cc1nc(C)c(C(=O)Nc2ccc(F)c(-c3cn4cc(-c5ccncc5)cnc4n3)c2)o1 [Compound 377] | – | – | – | – | 42 | 75 | 144 | 137
CCOCC(=O)Nc1cnc2nc(-c3cc(NC(=O)N4CCCC4)ccc3F)cn2c1 [Compound 138] | 127 | 549 | 3880 | 1950 | – | – | – | –
CC(C)OC(=O)Nc1cnc2nc(-c3cc(NC(=O)C(C)N)ccc3F)cn2c1 (stereo not shown) [Compound 87] | > 50000 | > 25000 | > 43700 | > 20000 | – | – | – | –
Cc1nc(C)c(C(=O)Nc2ccc(F)c(-c3cn4cc(NC(=O)C5(C)CC(F)(F)C5)cnc4n3)c2)o1 [Compound 118] | 442 | 606 | 2050 | 3380 | – | – | – | –
CC(C)OC(=O)Nc1cnc2nc(-c3cc(NC(=O)NN)ccc3Cl)cn2c1 [Compound 257] | 4650 | 9220 | > 33800 | 4050 | – | – | – | –
O=C1CCC(C(=O)Nc2ccc(F)c(-c3cn4cc(C5CC5)cnc4n3)c2)C1 (stereo not shown) [Compound 599] | – | – | – | – | 3300 | 2690 | 639 | 3930
Cc1nc(C)c(C(=O)Nc2ccc(F)c(-c3cn4cc(NC5=N[C@@H]6CCC[C@H]6O5)cnc4n3)c2)o1 [Compound 511] | – | – | – | – | 590 | 1550 | 2280 | 3680
CC(C)OC(=O)Nc1cnc2nc(-c3cc(NC(=O)N4CCCC4c4ccccn4)ccc3Cl)cn2c1 (stereo not shown) [Compound 259] | 34600 | > 22100 | 23700 | 10900 | – | – | – | –
O=C(Nc1ccc(F)c(-c2cn3cc(C4CC4)cnc3n2)c1)[C@H]1CC[C@@H](O)CC1 [Compound 598] | – | – | – | – | 4360 | 2770 | 10300 | 2550
CC(C)OC(=O)Nc1cnc2nc(-c3cc(NC(=O)N4CC[C@H](F)C4)ccc3Cl)cn2c1 [Compound 264] | 4310 | 4750 | > 14000 | 4720 | – | – | – | –
CC(C)OC(=O)Nc1cnc2nc(-c3cc(NC(=O)c4ccnn4C)ccc3F)cn2c1 [Compound 74] | 490 | 608 | 3890 | 608 | – | – | – | –
Cc1nc(C)c(C(=O)Nc2ccc(Cl)c(-c3cn4cc(NC(=O)OC(C)C)cnc4n3)c2)o1 [Compound 45] | 522 | 226 | 452 | 400 | – | – | – | –
O=C(Nc1ccc(F)c(-c2cn3cc(-c4ccccc4)cnc3n2)c1)N1CC(F)C1 [Compound 317, 3-fluoro-N-(4-fluoro-3-(6-phenylimidazo[1,2-a]pyrimidin-2-yl)phenyl)azetidine-1-carboxamide] | 12 | 14 | 38 | 12 | – | – | – | –
CC(C)(C)OC(=O)N[C@H]1CC[C@H](CNc2cnc3nc(-c4cc(NC(=O)N5CCCC5)ccc4F)cn3c2)CC1 [Compound 477] | – | – | – | – | 55 | 751 | 425 | 386
O=C(Nc1ccc(F)c(-c2cn3cc(-c4cccnc4)cnc3n2)c1)N1CC[C@@H](F)C1 [Compound 408] | – | – | – | – | 18 | 78 | 246 | 237
Cc1nc(C)c(C(=O)Nc2ccc(F)c(-c3cn4cc(NC5=N[C@H]6CCCC[C@@H]6O5)cnc4n3)c2)o1 [Compound 510] | – | – | – | – | 4010 | 1600 | 8130 | 2610
CC(C)OC(=O)Nc1cnc2nc(-c3cc(NC(=O)N4CC(F)C4)ccc3F)cn2c1 [Compound 287] | 77 | 120 | 402 | 1430 | – | – | – | –
Cc1nc(C)c(C(=O)Nc2ccc(F)c(-c3cn4cc(NC(=O)C5CCCOC5)cnc4n3)c2)o1 (stereo not shown) [Compound 154] | 1480 | 997 | 2530 | 6180 | – | – | – | –

Structure (SMILES) | EC50 ([1]; inhibition of proliferation) [nM] | EC50 [2, 5] [nM] | EC50 ([3]; inhibition of proliferation) [nM] | EC50 ([4]; inhibition of proliferation) [nM] | EC50 [1] [nM] | EC50 ([2]; L. donovani axenic amastigotes) [nM] | EC50 [3] [nM] | EC50 [4] [nM]
CCCC(=O)OCN(C(=O)OC(C)C)c1cnc2nc(-c3cc(NC(=O)c4oc(C)nc4C)ccc3F)cn2c1 [Compound 556] | – | – | – | – | 70 | 63 | 99 | 313
CC(C)OC(=O)Nc1cnc2nc(-c3cc(NC(=O)c4ccc(Br)s4)ccc3F)cn2c1 [Compound 82] | 4200 | 4990 | 3900 | 1210 | – | – | – | –
CC(C)OC(=O)Nc1cnc2nc(-c3cccc(NC(=O)c4cnco4)c3)cn2c1 [Compound 203] | 1160 | 970 | 13800 | 10600 | – | – | – | –
CC(C)OC(=O)Nc1cnc2nc(-c3cc(Nc4ncccc4OC(F)(F)F)ccc3F)cn2c1 [Compound 487] | – | – | – | – | > 50000 | > 25000 | > 50000 | > 16600
Cc1nc(C)c(C(=O)Nc2ccc(F)c(-c3cn4cc(C5CCCC5)cnc4n3)c2)o1 [Compound 422] | – | – | – | – | 33 | 126 | 305 | 193
Cc1nc(C)c(C(=O)Nc2ccc(F)c(-c3cn4cc(-c5cccnc5)cnc4n3)c2)o1 [Compound 395] | – | – | – | – | 45 | 109 | 187 | 153
COc1cccc(-c2cnc3nc(-c4cc(NC(=O)c5oc(C)nc5C)ccc4F)cn3c2)n1 [Compound 458] | – | – | – | – | 120 | 75 | 513 | 43
Cc1nc(C)c(C(=O)Nc2ccc(F)c(-c3cn4cc(NCc5c[nH]cn5)cnc4n3)c2)o1 [Compound 480] | – | – | – | – | 8420 | > 22300 | > 50000 | > 20000
CC(C)OC(=O)Nc1cnc2nc(-c3cc(NC(=O)N4C[C@@H]5C[C@H]4CO5)ccc3Cl)cn2c1 [Compound 258] | 13100 | 20200 | > 42400 | > 20000 | – | – | – | –
COC(=O)c1cnc2nc(-c3cc(NC(=O)c4oc(C)nc4C)ccc3F)cn2c1 [Compound 548, methyl 2-(5-(2,4-dimethyloxazole-5-carboxamido)-2-fluorophenyl)imidazo[1,2-a]pyrimidine-6-carboxylate] | – | – | – | – | 518 | 651 | 1070 | 539
Cc1nc(C)c(C(=O)Nc2ccc(F)c(-c3cn4cc(-c5cnn(C)c5)cnc4n3)c2)o1 [Compound 389] | – | – | – | – | 158 | 97 | 330 | 254
CC(C)OC(=O)Nc1cnc2nc(-c3cc(NC4=NCC(C)(C)O4)ccc3F)cn2c1 [Compound 503] | – | – | – | – | 36700 | > 25000 | 26600 | > 20000
CC(C)Nc1cnc2nc(-c3cc(NC(=O)N4CC[C@@H](F)C4)ccc3F)cn2c1 [Compound 461] | – | – | – | – | 55 | 234 | 185 | 232
Cc1ncc(C(=O)Nc2ccc(F)c(-c3cn4cc(-c5ccccc5)cnc4n3)c2)o1 [Compound 329] | 55 | 26 | 57 | 7 | – | – | – | –
Cc1nc(C)c(C(=O)Nc2ccc(F)c(-c3cn4cc(-c5ncccc5F)cnc4n3)c2)o1 [Compound 449] | – | – | – | – | 56 | 28 | 54 | 22
COC(C)C(=O)Nc1cnc2nc(-c3cc(NC(=O)c4oc(C)nc4C)ccc3F)cn2c1 (stereo not shown) [Compound 177] | 161 | 310 | 911 | 3470 | – | – | – | –
CCCNc1cnc2nc(-c3cc(NC(=O)N4CCCC4)ccc3F)cn2c1 [Compound 474] | – | – | – | – | 203 | 292 | 1110 | 478
CC(C)c1cnc2nc(-c3cc(NC(=O)N4CC[C@@H](F)C4)ccc3F)cn2c1 [Compound 418] | – | – | – | – | 8 | 29 | 71 | 15
Cc1nc(C)c(C(=O)Nc2ccc(F)c(-c3cn4cc(NC5CC5)cnc4n3)c2)o1 [Compound 494] | – | – | – | – | 1010 | 3520 | 4060 | 1300
O=C(Nc1ccc(F)c(-c2cn3cc(Cl)cnc3n2)c1)N1CC(F)C1 [Compound 238] | 117 | 208 | 788 | 233 | – | – | – | –
Cc1ncc(C(=O)Nc2ccc(F)c(-c3cn4cc(NC(C)C)cnc4n3)c2)o1 [Compound 462] | – | – | – | – | 129 | 174 | 403 | 151
